Source: patent US4521335A, “Aglycone and pseudo-aglycones of the AAD 216 antibiotics” (SmithKline Beckman Corporation, priority 1984, dated 1985)
≈ marks a conversion by molar mass, not a printed value.

How the values were obtained:
[1] = tested on: Staph. aureus HH 127; experiment: in vivo activity against intraperitoneal infections in mice; set-up: species or system mice infected with Staph. aureus; details: Staphylococcus aureus, HH127, sc
[2] = tested on: Pseudomonas aeruginosa HH63; experiment: MIC, standard microtiter assay; format: cell-based
[3] = tested on: B. fragilis H145; experiment: MIC, standard microtiter assay; format: cell-based; details: Bacteroides fragilis
[4] = tested on: C. perfringens SK & F 2769; experiment: microbe, parasite or virus in culture; format: cell-based; details: Clostridium perfringens
[5] = tested on: inoculum (ileal or cecal cannula filtrate); experiment: swine in vitro model, growth promotant activity; details: experiment I, 5 hours, 37° C.; for GLU (% Control): glucose; for LAC (% Control): lactic acid; for LYS (% Control): lysine; for VFA (% Control): total volatile fatty acids
[6] = tested on: Staph. aureus SK & F 2590; experiment: MIC, standard microtiter assay; format: cell-based; details: Staphylococcus aureus
[7] = tested on: Staph. aureus SK & F 2594; experiment: MIC, standard microtiter assay; format: cell-based; details: Staphylococcus aureus
[8] = tested on: Salmonella gallinarum BC-595; experiment: microbe, parasite or virus in culture; format: cell-based; details: Salmonella enterica
[9] = tested on: Staph. aureus SK & F 2614; experiment: MIC, standard microtiter assay; format: cell-based; details: Staphylococcus aureus
[10] = tested on: C. difficile SK & F 3141; experiment: MIC, standard microtiter assay; format: cell-based; details: Clostridioides difficile
[11] = tested on: Strep. faecalis SK & F 34358; experiment: MIC, standard microtiter assay; format: cell-based; details: Enterococcus faecalis
[12] = tested on: Staph. aureus SK & F 2743; experiment: MIC, standard microtiter assay; format: cell-based; details: Staphylococcus aureus
[13] = tested on: C. perfringens ATCC 19408; experiment: microbe, parasite or virus in culture; format: cell-based; details: Clostridium perfringens, ATCC19408
[14] = tested on: Staph. aureus SK & F 2615; experiment: MIC, standard microtiter assay; format: cell-based; details: Staphylococcus aureus
[15] = tested on: Enterobacter cloacae HH31254; experiment: MIC, standard microtiter assay; format: cell-based
[16] = tested on: B. thetaiotamicron SK & F 3089; experiment: MIC, standard microtiter assay; format: cell-based
[17] = tested on: Staph. aureus SK & F 2677; experiment: MIC, standard microtiter assay; format: cell-based; details: Staphylococcus aureus
[18] = tested on: Staph. aureus SK & F 2616; experiment: MIC, standard microtiter assay; format: cell-based; details: Staphylococcus aureus
[19] = tested on: Fusobacterium nucleatum ATCC 25586; experiment: MIC, standard microtiter assay; format: cell-based
[20] = tested on: Listeria monocytogenes SK & F 2255; experiment: MIC, standard microtiter assay; format: cell-based
[21] = tested on: Staph. aureus SK & F 1761; experiment: MIC, standard microtiter assay; format: cell-based; details: Staphylococcus aureus
[22] = tested on: Salmonella gallinarum SK & F BC595; experiment: microbe, parasite or virus in culture; format: cell-based; details: Salmonella enterica
[23] = tested on: Staph. aureus SK & F 2736; experiment: MIC, standard microtiter assay; format: cell-based; details: Staphylococcus aureus
[24] = tested on: Staph. aureus SK & F 2666; experiment: MIC, standard microtiter assay; format: cell-based; details: Staphylococcus aureus
[25] = tested on: C. difficile SK & F 3098; experiment: MIC, standard microtiter assay; format: cell-based; details: Clostridioides difficile
[26] = tested on: Staph. aureus SK & F 2678; experiment: MIC, standard microtiter assay; format: cell-based; details: Staphylococcus aureus
[27] = tested on: C. perfringens MCP-2; experiment: microbe, parasite or virus in culture; format: cell-based; details: Clostridium perfringens
[28] = tested on: Staph. aureus SK & F 2776; experiment: MIC, standard microtiter assay; format: cell-based; details: Staphylococcus aureus
[29] = tested on: E. coli SK & F 12140; experiment: MIC, standard microtiter assay; format: cell-based; details: Escherichia coli
[30] = tested on: Staph. aureus SK & F 2613; experiment: MIC, standard microtiter assay; format: cell-based; details: Staphylococcus aureus
[31] = tested on: Staph. aureus SK & F 2589; experiment: MIC, standard microtiter assay; format: cell-based; details: Staphylococcus aureus
[32] = tested on: Staph. aureus SK & F 674-P6-mutant; experiment: microbe, parasite or virus in culture; format: cell-based; details: Staphylococcus aureus
[33] = tested on: B. fragilis SK & F 3060; experiment: MIC, standard microtiter assay; format: cell-based; details: Bacteroides fragilis
[34] = tested on: Clostridium perfringens MCP-1; experiment: microbe, parasite or virus in culture; format: cell-based; details: MCP1

CN[C@H](CC(C)C)C(=O)N[C@H]1C(=O)N[C@@H](CC(N)=O)C(=O)N[C@H]2C(=O)N[C@H]3C(=O)N[C@H](C(=O)N[C@H](C(=O)O)c4cc(O)cc(O)c4-c4cc3ccc4O)[C@H](O)c3ccc(c(Cl)c3)Oc3cc2cc(c3O[C@@H]2O[C@H](CO)[C@@H](O)[C@H](O)[C@H]2O[C@H]2C[C@](C)(N)[C@H](O)[C@H](C)O2)Oc2ccc(cc2Cl)[C@H]1O [Vancomycin, vancomycin]
ED50 ([1]; i.p. infection 46.8 LD50's Staph. aureus HH 127, s.c. 1 and 5 hours post infection): 1.56 mg/kg | ED50 ([1]; second test, similar protocol, s.c.): 1.92 mg/kg | MIC [2]: > 100 µg/mL | MIC [3]: 32 µg/mL (≈ 22.1 µM) | MIC [4]: 0.5 µg/mL (≈ 0.345 µM) | GLU (% Control) ([5]; 1.67 ppm): 100 % Control | LAC (% Control) ([5]; 1.67 ppm): 99 % Control | LYS (% Control) ([5]; 1.67 ppm): 83 % Control | VFA (% Control) ([5]; 1.67 ppm): 92 % Control | GLU (% Control) ([5]; 16.67 ppm): 189 % Control | LAC (% Control) ([5]; 16.67 ppm): 59 % Control | LYS (% Control) ([5]; 16.67 ppm): 42 % Control | VFA (% Control) ([5]; 16.67 ppm): 280 % Control | GLU (% Control) ([5]; 166.67 ppm): 190 % Control | LAC (% Control) ([5]; 166.67 ppm): 64 % Control | LYS (% Control) ([5]; 166.67 ppm): 48 % Control | VFA (% Control) ([5]; 166.67 ppm): 250 % Control | MIC [6]: 1.6 µg/mL (≈ 1.1 µM) | MIC [7]: 1.6 µg/mL (≈ 1.1 µM) | MIC [8]: > 100 µg/mL | MIC [9]: 1.6 µg/mL (≈ 1.1 µM) | MIC [10]: 1 µg/mL (≈ 0.69 µM) | MIC [11]: 3.1 µg/mL (≈ 2.14 µM) | MIC [12]: 1.6 µg/mL (≈ 1.1 µM) | MIC [13]: 1 µg/mL (≈ 0.69 µM) | MIC [14]: 3.1 µg/mL (≈ 2.14 µM) | MIC [15]: > 100 µg/mL | MIC [16]: 32 µg/mL (≈ 22.1 µM) | MIC [17]: 1.6 µg/mL (≈ 1.1 µM) | MIC [18]: 0.8 µg/mL (≈ 0.552 µM) | MIC ([19]; Fusobacterium nucleatum, ATCC25586): 32 µg/mL (≈ 22.1 µM) | MIC ([19]; Table F, Fusobacterium nucleatum ATCC 25586): 32 µg/mL (≈ 22.1 µM) | MIC ([20]; Table A): 1.6 µg/mL (≈ 1.1 µM) | MIC ([20]; Table E): 0.8 µg/mL (≈ 0.552 µM) | MIC [21]: 1.6 µg/mL (≈ 1.1 µM) | MIC [22]: 25 µg/mL (≈ 17.3 µM) | MIC [23]: 1.6 µg/mL (≈ 1.1 µM) | MIC [24]: 1.6 µg/mL (≈ 1.1 µM) | MIC [25]: 2 µg/mL (≈ 1.38 µM) | MIC [26]: 1.6 µg/mL (≈ 1.1 µM) | MIC ([27]; MCP2, Table D, Anaerobes): 0.5 µg/mL (≈ 0.345 µM) | MIC ([27]; MCP2, Table F): 2 µg/mL (≈ 1.38 µM) | MIC [28]: 1.6 µg/mL (≈ 1.1 µM) | MIC [29]: > 100 µg/mL | MIC [30]: 1.6 µg/mL (≈ 1.1 µM) | MIC [31]: 1.6 µg/mL (≈ 1.1 µM) | MIC [32]: 100 µg/mL (≈ 69 µM) | MIC [33]: 32 µg/mL (≈ 22.1 µM) | MIC [34]: 0.5 µg/mL (≈ 0.345 µM)
